Where two headings read alike, the source gives them in different places.
Tests used:
[1] = biological target: T1, recombinant human 5-HT4 receptor (Homo sapiens, UniProt Q13639); assay: Determination of EC50 values for 5-HT4 receptor (CHO cells, pCRE-Luc reporter); format: cell-based; details: for Emax: CHO; for EC50: 4 hours incubation
T1 construct: expressed in transfected cells
Method: Determination of EC50 Values for 5-HT4 Receptor
A stable CHO cell line expressing recombinant human 5-HT4 receptor and pCRE-Luc reporter system was used for cell-based assay. The assay offers a non-radioactive based approach to determine binding of a compound to GPCRs. In this specific assay, the level of intracellular cyclic AMP, which is modulated by activation, or inhibition of the receptor is measured. The recombinant cells harbor luciferase reporter gene under the control of cAMP response element.
The above cells were grown in 96 well clear bottom white plates in Hams F12 medium containing 10% fetal bovine serum (FBS). Prior to the addition of compounds or standard agonist, cells were serum starved overnight. Increasing concentrations of test compounds were added in OptiMEM medium to the cells. The incubation was continued at 37° C. in CO2 incubator for 4 hours. Medium was removed and cells were washed with phosphate buffered saline. The cells were lysed and luciferase activity was measured in a Luminometer. Luminescence units were plotted against the compound concentrations using Graphpad software.

Male Wistar rats = assay: Object recognition task model; format: in vivo; details: dose mg/kg: Ex 1 0.1, Ex 2 0.03, Ex 4 0.03, Ex 13 1, Ex 23 0.01, Ex 37 10, Ex 43 0.3
Method: The cognition enhancing properties of compounds of this invention were estimated by using this model.
Male Wistar rats (230-280 grams) were used as experimental animals. Four animals were housed in each cage. Animals were kept on 20% food deprivation before one day and given water ad libitum throughout the experiment and maintained on a 12 hours light/dark cycle. Also the rats were habituated to individual arenas for 1 hour in the absence of any objects.
One group of 12 rats received vehicle (1 mL/Kg) orally and another set of animals received compound of the formula (I) either orally or i.p., before one hour of the familiar (T1) and choice trial (T2).
The experiment was carried out in a 50×50×50 cm open field made up of acrylic. In the familiarization phase, (T1), the rats were placed individually in the open field for 3 minutes, in which two identical objects (plastic bottles, 12.5 cm height×5.5 cm diameter) covered in yellow masking tape alone (a1 and a2) were positioned in two adjacent corners, 10 cms from the walls. After 24 hours of the (T1) trial for long-term memory test, the same rats were placed in the same arena as they were placed in T1 trial. Choice phase (T2) rats were allowed to explore the open field for 3 minutes in presence of one familiar object (a3) and one novel object (b) (Amber color glass bottle, 12 cm high and 5 cm in diameter). Familiar objects presented similar textures, colors and sizes. During the T1 and T2 trial, explorations of each object (defined as sniffing, licking, chewing or having moving vibrissae whilst directing the nose towards the object at a distance of less than 1 cm) were recorded separately by stopwatch. Sitting on an object was not regarded as exploratory activity, however, it was rarely observed.
T1 is the total time spent exploring the familiar objects (a1+a2).
T2 is the total time spent exploring the familiar object and novel object (a3+b).
The object recognition test was performed as described by Behaviour Brain Research, (1988), 31, 47-59.

Aβ1-42 = assay: Effect on CSF Aβ1-42 level (ELISA); format: in vivo, Male Sprague Dawley Rat; details: 50.0 mg/kg p.o., positive control
Method: (§1) The control group of male rats received a vehicle (reagent grade water) per orally by gavage at a dose volume of 10 mL/kg. The treated groups (6 rat per group) received a single dose of test compound (different doses) or DAPT (50.0 mg/kg). Two hour post dose of vehicle or test compounds, rats were anesthetized with isoflurane and CSF was collected by puncturing Cisterna magna using 0.5 mL syringes by utilizing stereotaxic frame. CSF samples were frozen in liquid nitrogen and stored at −80° C. until ELISA was performed.
(§2) • 1. CSF samples were thawed to RT and diluted with Tris Buffer Saline containing protease inhibitors at 1:10 ratio [15:150 μL (15 μL CSF+ 135 μL TBS], • 2. To this diluted CSF samples 0.15 mL of EIA buffer (1:1 ratio) was added. These diluted samples were subjected for Aβ1-42 level measurement by ELISA. Measurement of Aβ1-42 by ELISA Kit:
(§3) To investigate the role of an acute treatment of test compound on Aβ1-42 levels, expression of this protein was measured in CSF of treated and untreated rat by ELISA assay. The entire procedure was followed as described in ELISA kit manual (Mouse/Rat Amyloid-β1-40 ELISA, Cat No: 27720, IBL International, Hamburg, Germany).
(§4) Statistical analyses were performed using the Graph Pad Prism (Version 4). Data are Mean±SD of Aβ1-42 levels expressed as percentage of control values (rat which received regent grade water). Values were compared between the different groups by unpaired t test. The significance level was set at *p<0.05; **p<0.01; ***p<0.001.

Aβ1-40 = assay: Effect on CSF Aβ1-40 level (ELISA); format: in vivo, Male Sprague Dawley Rat; details: 50.0 mg/kg p.o., positive control
Method: as §1, with “from” for “by puncturing”, “frame. The” for “frame.”
as §2, with “115:150” for “[15:150”, “CSI+135” for “CSF+ 135”, “TBS.” for “TBS],”, “Aβ1-40” for “Aβ1-42”
as §3, with “Aβ1-40” for “Aβ1-42”, “protein in CSF” for “protein”, “in” for “in CSF of”, “per” for “described in”, “Amyloid-Aβ1-40” for “Amyloid-β1-40”, “27721,” for “27720,”
as §4, with “analysis was” for “analyses were”, “Aβ1-40” for “Aβ1-42”, “by using” for “by”

[2] = CHO cells, human 5-HT4 receptor, luciferase reporter
[3] = CHO cells, human 5-HT4 receptor, luciferase reporter, read-out: Emax

T1 sequence (Q13639 whole entry): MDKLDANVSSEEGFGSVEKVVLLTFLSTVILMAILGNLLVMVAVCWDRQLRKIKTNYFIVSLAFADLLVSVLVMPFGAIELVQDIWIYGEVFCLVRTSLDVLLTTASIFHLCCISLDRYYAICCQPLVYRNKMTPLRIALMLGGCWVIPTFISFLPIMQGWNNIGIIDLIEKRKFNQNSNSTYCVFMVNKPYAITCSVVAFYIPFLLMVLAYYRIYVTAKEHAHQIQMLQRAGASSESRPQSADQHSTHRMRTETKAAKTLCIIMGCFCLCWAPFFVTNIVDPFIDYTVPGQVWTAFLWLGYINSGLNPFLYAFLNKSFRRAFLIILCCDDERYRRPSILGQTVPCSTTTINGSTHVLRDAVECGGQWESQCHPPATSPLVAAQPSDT

SMILES	EC50 [1, 2]	Emax [1, 3]	Emax [1]	also measured
Nc1c(Cl)cc(C(=O)NCC2CCN(CC3CCOC3)CC2)c2ncccc12.O=C(O)C(O)C(O)C(=O)O (racemic) [Example 4, (R,S) 5-Amino-6-chloro-N-{[1-(tetrahydro-3-furanylmethyl)-4-piperidinyl]methyl} quinoline-8-carboxamide L(+)-tartarate]	50 pM	–	56%	Exploration time mean ± S.E.M, Familiar object (Male Wistar rats; choice trial T2, p.o.): 6.96 ± 1.02 s; Exploration time mean ± S.E.M, Novel object (Male Wistar rats; choice trial T2, p.o.): 12.37 ± 1.22 s; Inference (Male Wistar rats; p.o.): Active
C[C@H](NC(=O)Cc1cc(F)cc(F)c1)C(=O)N[C@H](C(=O)OC(C)(C)C)c1ccccc1 [DAPT, reference compound]	–	–	–	levels of Aβ1-42 in rat CSF (in words) (Aβ1-42): significantly decreased; level of Aβ1-40 in rat CSF (in words) (Aβ1-40): significantly decreased
CC(C)(F)CN1CCC(F)(CNC(=O)c2cc(Cl)c(N)c3cccnc23)CC1 [Example 48, 5-Amino-6-chloro-N-{[4-fluoro-1-(2-fluoro-2-methylpropyl)-4-piperidinyl]methyl} quinoline-8-carboxamide]	8900 pM	84%	–	–
Nc1c(Cl)cc(C(=O)NCC2C3CN(CCCO)CC23)c2ncccc12 (centres unmarked) [Example 51, 5-Amino-6-chloro-N-{[3-(3-hydroxypropyl)-3-azabicyclo[3.1.0]hex-6-yl]methyl} quinoline-8-carboxamide]	1400 pM	85%	–	–
COCCCN1CC2C(CNC(=O)c3cc(Cl)c(N)c4cccnc34)C2C1 (stereo not drawn) [Example 54, 5-Amino-6-chloro-N-{[3-(3-methoxypropyl)-3-azabicyclo[3.1.0]hex-6-yl]methyl}quinoline-8-carboxamide L(+)-tartarate]	700 pM	–	70%	–
COCC(C)(C)CN1CCC(CNC(=O)c2cc(Cl)c(N)c3cccnc23)CC1 [Example 55, 5-Amino-6-chloro-N-{[1-(3-methoxy-2,2-dimethylpropyl)-4-piperidinyl]methyl}quinoline-8-carboxamide L(+)-tartarate]	90 pM	–	72%	–

Further lines, with some results ahead:

EC50 [1, 2]	Emax [1, 3]	SMILES	Emax [1]	also measured
100 pM	58%	CC(C)(F)CN1CCC(CNC(=O)c2cc(Cl)c(N)c3cccnc23)CC1 [Example 46, 5-Amino-6-chloro-N-{[1-(2-fluoro-2-methylpropyl)-4-piperidinyl]methyl}quinoline-8-carboxamide]	–	–
1700 pM	72%	Nc1c(Cl)cc(C(=O)NCC2C3CN(CCO)CC23)c2ncccc12 (centres unmarked) [Example 50, 5-Amino-6-chloro-N-{[3-(2-hydroxyethyl)-3-azabicyclo[3.1.0]hex-6-yl]methyl} quinoline-8-carboxamide]	–	–
410 pM	63%	Nc1c(Cl)cc(C(=O)NCC2CCN(CCF)CC2)c2ncccc12 [Example 52, 5-Amino-6-chloro-N-{[1-(2-fluoroethyl)-4-piperidinyl]methyl}quinoline-8-carboxamide]	–	–
4500 pM	65%	Nc1c(Cl)cc(C(=O)NCC2C3CN(CCF)CC23)c2ncccc12 (centres unmarked) [Example 53]	–	–
